Values joined by “and” are separate entries in the source; they are usually repeats but may differ in a detail not shown here. Equal entries are not always repeated.

34 molecules from patent US20120108592A1, “PHARMACEUTICAL COMPOSITIONS AND METHODS OF USE OF SALICYLANILIDES FOR TREATMENT OF HEPATITIS VIRUSES” (priority 2010, published 2012) can be followed below.

Data set [1] is described as follows: Primary HCV replicon cell assay, cytotoxicity (neutral red dye uptake). It is filed as cell-based. As to conditions: human, AVA5 HCV replicon cells (sub-genomic CON1, genotype 1b), 3 days of treatment. For orientation: A replicon is a self-replicating genome or part of one, used to study replication in cells.
Protocol: Antiviral activity of test compounds was assessed in a 3-day assay using the stably-expressing HCV replicon cell line, AVA5 (sub-genomic CONI, genotype 1b) [Korba, B. E. et al. Antiviral Res. 77, 56-63 (2008); Blight et al., Science 290, 1972-1974 (2000)] maintained as sub-confluent cultures on 96-well plates as previously described [Okuse et al., Antiviral Research 65, 23-34 (2005)]. Antiviral activity was determined by blot hybridization analysis of intracellular HCV RNA (normalized to the level of cellular B-actin RNA in each culture sample) and cytotoxicity was assessed by neutral red dye uptake after 3 days of treatment. Additional studies were performed using Huh7 cells containing another HCV replicon, H/FL-Neo, a genotype la full length construct [Blight et al., J. Virol. […] For studies involving human serum, standard culture medium (which contains 10% fetal bovine serum) and assay conditions were maintained.
Data set [2] deals with HCV replicon cell line, AVA5 (sub-genomic CONI, genotype 1b). The data set can be described thus: Primary HCV replicon cell assay, antiviral activity (intracellular HCV RNA, blot hybridization). It is filed as cell-based. As to conditions: Hepatitis C virus, Ava5, 72 h, 3-day assay; for EC50: 2-fold depression of intracellular HCV RNA; for EC90: 10-fold depression of intracellular HCV RNA. As to the method: Antiviral activity of test compounds was assessed in a 3-day assay using the stably-expressing HCV replicon cell line, AVA5 (sub-genomic CONI, genotype 1b) [Korba, B. E. et al. Antiviral Res. 77, 56-63 (2008); Blight et al., Science 290, 1972-1974 (2000)] maintained as sub-confluent cultures on 96-well plates as previously described [Okuse et al., Antiviral Research 65, 23-34 (2005)]. Antiviral activity was determined by blot hybridization analysis of intracellular HCV RNA (normalized to the level of cellular B-actin RNA in each culture sample) and cytotoxicity was assessed by neutral red dye uptake after 3 days of treatment. Additional studies were performed using Huh7 cells containing another HCV replicon, H/FL-Neo, a genotype la full length construct [Blight et al., J. Virol. 77, 3181-3190 (2003)]. For studies involving human serum, standard culture medium (which contains 10% fetal bovine serum) and assay conditions were maintained.
EC50, EC90 and CC50 values (±standard deviations [S.D.]) were calculated by linear regression analysis using data combined from all treated cultures (Korba, B. E. et al. Antiviral Res. 77, 56-63 (2008)). […] Selectivity index (S.I.) was calculated as CC50/EC90 for HBV assays and CC50/EC50 for HCV assays.

Data set [3] can be described thus: Cytotoxicity in 2.2.15 cells (neutral red dye uptake). It is filed as cell-based. To be noted: human, nine daily doses. As to the method:
Briefly, confluent cultures of 2.2.15 cells were maintained on 96-well flat-bottomed tissue culture plates (confluence in this culture system is required for active, high levels of HBV replication equivalent to that observed in chronically-infected individuals. Cultures were treated with nine consecutive daily doses of the test compounds. HBV DNA levels were assessed by quantitative blot hybridization 24 hr. after the last treatment. Cytotoxicity was assessed by uptake of neutral red dye 24 hr. following the last treatment.

Data set [4] deals with HBV virion in 2.2.15 cells. The data set can be described thus: HBV antiviral assay in 2.2.15 cells, virion (VIR) HBV DNA. It is filed as cell-based. As to conditions: Hepatitis B virus, HBV virion DNA, 2.2.15 cells, nine daily doses; for EC50: read-out: EC50 (VIR); for EC90: read-out: EC90 (VIR).
Protocol: (§1) HBV antiviral assays were conducted as previously described [Korba, B. E. et al. Antiviral Res. 77, 56-63 (2008);].
The subject of data set [5] is HBV replication intermediates in 2.2.15 cells. The data set can be described thus: HBV antiviral assay in 2.2.15 cells, replication intermediates (RI) HBV DNA. It counts as cell-based. To be noted: Hepatitis B virus, HBV replication intermediates, 2.2.15 cells, nine daily doses; for EC50: read-out: EC50 (RI); for EC90: read-out: EC90 (RI).
Protocol: as §1

As for `CC(=O)Oc1ccccc1C(=O)Nc1cccc(S(C)(=O)=O)c1`, the melting point – broadly, the temperature, or range, at which the solid turns liquid – is 51 to 53 °C.

As for `CS(=O)(=O)c1ccc(NC(=O)c2ccccc2O)cc1`, the melting point is 193 °C and 193 to 196 °C.

In the case of `Cc1cccc(C(=O)Nc2cccc(F)c2)c1O` [Compound 9, N-(3-fluorophenyl)-2-hydroxy-3-methylbenzamide], the melting point is 143.8 to 144.8 °C. For the same molecule, it took 40 µM to reach half-maximal cytotoxicity in data set [1] (CC50 at 3 days). Further, in data set [2], the EC50 (as a rule, the concentration giving half of the maximal effect) stood at 1.9 µM and the 90% effect level (EC90) was put at 9 µM.

As for `Cc1cccc(C(=O)Nc2cccc([N+](=O)[O-])c2)c1O`, the melting point is 217.5 °C.

As to `Cc1cccc(C(=O)Nc2ccc(Cl)cc2)c1O` [Compound 20, N-(4-chlorophenyl)-2-hydroxy-3-methylbenzamide], the melting point lay in the range of 159.6 to 161.6 °C. Moreover, in data set [1], the CC50 (as a rule, the concentration at which the toxic effect on the cells reaches its halfway point) at 3 days was over 100 µM. Besides, in data set [2], the midpoint of the response, the EC50, lay at 6.5 µM and the EC90 (usually the concentration at which the effect reaches the 90% level) amounted to 16 µM.

Take `O=C(Nc1ccc(C(F)(F)F)cc1)c1ccccc1O` [Compound 51, 2-hydroxy-N-(4-(trifluoromethyl)phenyl)benzamide]: the CC50 at 9 days in data set [3] was over 100 µM. In data set [4], the EC50 was determined as 5.6 µM and the EC90 amounted to 21 µM.

As for `O=C(O)c1ccccc1C(=O)Nc1ccc(F)cc1`, the melting point was found to be 167.3 °C.

Regarding `Cc1cccc(C(=O)Nc2cccc(Cl)c2)c1O` [Compound 14, N-(3-chlorophenyl)-2-hydroxy-3-methylbenzamide], the melting point came to 148.5 °C. This molecule came in with a CC50 at 3 days in data set [1] of 35 µM. For the same molecule, in data set [2], it took 2.8 µM to reach a half-maximal effect (EC50) and the EC90 came to 7.8 µM.

As for `CC(=O)Oc1ccccc1C(=O)Nc1cc(C(F)(F)F)ccc1Cl` [Compound 52, 2-(2-chloro-5-(trifluoromethyl)phenylcarbamoyl)phenyl acetate], the 50% cytotoxic concentration (CC50) at 9 days in data set [3] was found to be 59 µM. For the same molecule, in data set [4], the EC50 was determined as 2.5 µM and the EC90 is 9.1 µM.

With `CC(=O)Oc1ccccc1C(=O)Nc1ccc(I)cc1` [Compound 40, 2-(4-iodophenylcarbamoyl)phenyl acetate], in data set [5], the EC50 amounted to 0.73 µM and the EC90 came to 3.3 µM. In data set [3], this molecule gave a CC50 at 9 days of over 100 µM. Besides, in data set [4], the EC50 was 0.2 µM and the EC90 came out at 1.2 µM.

Consider `O=C(Nc1ccc([N+](=O)[O-])cc1)c1ccccc1O`, for which the melting point turned out to be 233 °C.

With `CC(=O)Oc1ccccc1C(=O)Nc1ccc(Br)cc1` [Compound 39, 2-(4-bromophenylcarbamoyl)phenyl acetate], in data set [5], the EC50 worked out at 2.1 µM and the EC90 was determined as 6.8 µM. The CC50 at 9 days in data set [3] was over 100 µM. Besides, in data set [4], the EC50 came to 0.76 µM and the EC90 came out at 3 µM.

Turning to `CC(=O)Oc1ccccc1C(=O)Nc1ccc(Cl)cc1` [Compound 38, 2-(4-chlorophenylcarbamoyl)phenyl acetate], the CC50 at 9 days in data set [3] is over 100 µM. In data set [4], the EC50 came to 3.5 µM and the concentration for an effect of 90% (EC90) worked out at 9.7 µM.

`CC(=O)Oc1ccccc1C(=O)Nc1cccc(F)c1` [Compound 24, 2-(3-fluorophenylcarbamoyl)phenyl acetate] showed a melting point of 88.5 to 89.7 °C. Besides, the CC50 at 3 days in data set [1] was over 100 µM. In addition, in data set [2], the EC50 was 2.1 µM and the EC90 came to 6.8 µM.

`O=C(Nc1cccc(Br)c1)c1ccccc1O` displayed a melting point of 183.5 °C.

Molecule `Cc1cccc(C(=O)Nc2ccccc2Cl)c1O` yielded a melting point of 99.8 to 100.4 °C.

In the case of `CC(=O)Oc1ccccc1C(=O)Nc1ccccc1S(C)(=O)=O`, the melting point lay in the range of 115 to 117 °C.

As to `CS(=O)(=O)c1ccccc1NC(=O)c1ccccc1O`, the melting point fell in the range of 142 to 145 °C.

On to `CC(=O)Oc1ccccc1C(=O)Nc1ccc(F)c(F)c1` [Compound 55, 2-(3,4-difluorophenylcarbamoyl)phenyl acetate], for which the CC50 at 9 days in data set [3] was found to be 48 µM. Further, in data set [4], the EC50 was determined as 2.2 µM and the EC90 turned out to be 8.8 µM.

In data set [1], `O=C(Nc1ccc(OC(F)(F)C(F)F)cc1)c1ccccc1O` [Compound 49, 2-hydroxy-N-(4-(1,1,2,2-tetrafluoroethoxy)phenyl)benzamide] returned a CC50 at 3 days of 3.9 µM. In data set [2], this molecule showed an EC50 of 0.313 µM and an EC90 of 1.1 µM.

`O=C(Nc1ccccc1Cl)c1ccccc1O` [Compound 23, N-(2-chlorophenyl)-2-hydroxybenzamide] had a melting point of 168.1 to 168.8 °C. For the same molecule, it took 72 µM to reach half-maximal cytotoxicity in data set [1] (CC50 at 3 days). For the same molecule, in data set [2], the response was half-maximal at 3.8 µM (EC50) and the EC90 came out at 21 µM.

As to `Cc1cc([N+](=O)[O-])c(Cl)cc1NC(=O)c1ccccc1O` [Compound 42, N-(5-chloro-2-methyl-4-nitrophenyl)-2-hydroxybenzamide], the results for the EC50 in data set [5] and in data set [4] were 0.68 µM and 0.23 µM, respectively. Further, the EC90 in data set [5] is 2.1 µM; in data set [4], 0.71 µM. The molecule also gave a CC50 at 9 days in data set [3] of over 100 µM.

`CC(=O)Oc1ccccc1C(=O)Nc1ccc(Cl)c([N+](=O)[O-])c1` [Compound 53, 2-(4-chloro-3-nitrophenylcarbamoyl)phenyl acetate] showed a CC50 at 9 days in data set [3] of 52 µM. In data set [4], the EC50 came to 2 µM and the EC90 is 8.7 µM.

Take `O=C(Nc1ccccc1Br)c1ccccc1O` [Compound 4, N-(2-bromophenyl)-2-hydroxybenzamide]: the melting point stood at 165.5 °C. In data set [1], this molecule returned a CC50 at 3 days of over 100 µM. In data set [2], the 50% effective concentration (EC50) turned out to be 5.8 µM and the EC90 was 20 µM.

Take `Cc1cccc(C(=O)Nc2ccc(F)cc2)c1O`: the melting point fell in the range of 144.8 to 145.8 °C.

In turn, `O=C(Nc1cccc([N+](=O)[O-])c1)c1ccccc1O` [Compound 7, 2-hydroxy-N-(3-nitrophenyl)benzamide] displayed a melting point of 222 °C. In addition, the CC50 at 3 days in data set [1] came to 34 µM. In data set [2], this molecule registered a half-maximal effective concentration (EC50) of 1.1 µM and an EC90 of 6.1 µM.

Turning to `O=C(O)c1ccccc1C(=O)Nc1ccccc1Cl` [Compound 15, 2-(2-chlorophenylcarbamoyl)benzoic acid], the melting point is 145.2 to 145.7 °C. The same molecule gave a CC50 at 3 days in data set [1] of 78 µM. Further, in data set [2], it took 2.9 µM to reach a half-maximal effect (EC50) and the 90% effect level (EC90) was put at 11 µM.

On to `O=C(Nc1cccc(C(F)(F)F)c1)c1ccccc1O` [Compound 27, 2-hydroxy-N-(3-(trifluoromethyl)phenyl)benzamide], for which the melting point was in the range of 188 to 190.6 °C. In data set [1], the CC50 at 3 days was over 100 µM. In data set [2], this molecule returned an EC50 of 3.6 µM and an EC90 of 11 µM.

`CS(=O)(=O)c1cccc(NC(=O)c2ccccc2O)c1` yielded a melting point of 210 to 212 °C.

In turn, `O=C(Nc1cc(C(F)(F)F)cc(C(F)(F)F)c1)c1ccccc1O` registered a melting point of 196 to 198 °C.

`CC(=O)Oc1ccccc1C(=O)Nc1ccc(S(C)(=O)=O)cc1` registered a melting point of 184 to 186 °C.

In the case of `CC(=O)Oc1ccccc1C(=O)Nc1cc([N+](=O)[O-])ccc1Cl` [Compound 54, 2-(2-chloro-5-nitrophenylcarbamoyl)phenyl acetate], it took 65 µM to reach half-maximal cytotoxicity in data set [3] (CC50 at 9 days). In addition, in data set [4], the EC50 came out at 2.1 µM and the EC90 came out at 8.5 µM.

`Cc1cccc(C(=O)Nc2ccccc2F)c1O` showed a melting point of 74.2 to 83.4 °C.

`Cc1cccc(C(=O)Nc2cccc(Br)c2)c1O` yielded a melting point of 147.2 to 148.2 °C.
